Measurements from patent US20240261218A1, “BIODEGRADABLE MUCOADHESIVE PHARMACEUTICAL FORMULATIONS AND METHODS THEREOF” (THE TEXAS A&M UNIVERSITY SYSTEM, priority 2021, published 2024).
Several values for one entry are separate records, joined by “and”; a condition that tells them apart may be missing. Identical values can stand only once. Entries after “also recorded” stand apart in the source; their conditions may differ. Like-named read-outs stand apart in the source and are kept apart here. Each block holds one compound with its values, some of them ahead of it.

Columns and labels:
[1] = In vivo active ingredient release: tongue tissue and plasma amounts in healthy rats; set-up: species or system rat
Description: The instant example analyzes exemplary pharmaceutical formulations applied to the tongue of healthy rats for different time periods up to 4 hours. Concentrations of mycophenolic acid and oxaliplatin in tongue tissues were measured at the corresponding times and up to 12 hours from the beginning of the formulation application in rats. The following are groups of rats that were studied: • Group #1: Formulation applied for 0.5 hour and rat tongues were harvested for drug analysis. N=8 rats. • Group #2: Formulation applied for 1 hour and rat tongues were harvested for drug analysis. N=13 rats. • Group #3: Formulation applied for 2 hours and rat tongues were harvested for drug analysis. N=13 rats. • Group #4: Formulation applied for 3 hours and rat tongues were harvested for drug analysis. N=12 rats. • Group #5: Formulation applied for 4 hours and rat tongues were harvested for drug analysis. N=6 rats. • Group #6: Formulation applied for 4 hours and removed from the rat. At 8 hours after the start of the Formulation application, rat tongues were harvested for drug analysis. N=7 rats. • Group #7: Formulation applied for 4 hours and removed from the rat. At 12 hours after the start of the Formulation application, rat tongues were harvested for drug analysis. N=9 rats.
• 1. Animal care and treatment. […] Combination index (CI) and isoborogram. […] Pharmaceutical formulation.

[2] = Plasma concentrations before the fifth dose in 4NQO-treated rats; assay type: in vivo, rat
[3] = tested on: Dysplastic oral keratinocyte (DOK) cells; experiment: MTT growth inhibition (IC50) in DOK cells; assay type: cell-based; settings: MTT assay; for IC50: read-out: IC50 concentration
From the text: • 1. Animal care and treatment. […] Combination index (CI) and isoborogram. […] Pharmaceutical formulation. […] LC-MS/MS.

[4] = Stability of OXP in solutions; assay type: physicochemical
From the text: These chloride derivatives of OXP are not detectable by current available assays.

SMILES: O=C1[O][Pt]2([NH][C@@H]3CCCC[C@H]3[NH]2)[O]C1=O (relative stereo) [OXP, [SP-4-2-(1R-trans)]-(1,2-cyclohexanediamine-N,N′)[ethanedioato(2-)-O,O′]platinum]
oxaliplatin in rat tongue as % of the formulation active ingredient load ([1]; 0.5-hour formulation application group): about 21%
oxaliplatin in plasma ([1]; any groups): no detectable oxaliplatin in plasma
Plasma concentration of oxaliplatin immediately before the fifth dose application ([2]; 4NQO induced rats, daily 2-hours supra-lingual formulation (9,040 ng MPS, 680 ng OXP)): not detectible
Plasma concentration of oxaliplatin immediately before the fifth dose application ([2]; 4NQO induced rats, daily 2-hours supra-lingual formulation (9,040 ng MPS, 680 ng OXP), listed as oxaliplatin): No detectable levels; also recorded: Not detectible (ND)
IC50 [3]: 1.67 µM
stability of OXP in chloride-containing solutions ([4]; NaCl (0.9%, 3%), KCl (3%)): converted by chloride in a time and concentration-dependent manner
stability of OXP in NaPi, glucose, or H2O solutions and solutions containing the bioadhesive material components ([4]; NaPi 0.2M, glucose 5%, H2O, PAA, DOPA, CMC): remains stable

SMILES: O=c1[nH]cc(F)c(=O)[nH]1 [5-FU]
IC50 concentration [3]: 3.33 µg/mL

SMILES: COc1c(C)c2c(c(O)c1C/C=C(\C)CCC(=O)O)C(=O)OC2 [MPA]
IC50 ([3]; Keratinocyte): 13.3 µM

MPS detected in rat tongue as % of the formulation drug load ([1]; 0.5 hour supra-lingual application): about 55%
plasma MPS concentrations ([1]; all groups): less than 10 ng/mL
concentration at 8 h ([1]; male, Sprague-Dawley, rat, plasma, healthy rats, applied 4 hours, sampled 4 hours after removal (8 hours from beginning), mean ± SD): 6.5 ± 1.3 ng/mL
concentration at 12 h ([1]; male, Sprague-Dawley, rat, plasma, healthy rats, applied 4 hours, sampled 8 hours after removal (12 hours from beginning), mean ± SD): 4.26 ± 0.71 ng/mL
concentration at 1 h ([1]; male, Sprague-Dawley, rat, plasma, healthy rats, supra-lingual formulation, 1 hour of application, mean ± SD): 0.96 ± 0.26 ng/mL
concentration at 2 h ([1]; male, Sprague-Dawley, rat, plasma, healthy rats, supra-lingual formulation, 2 hours of application, mean ± SD): 2.09 ± 0.76 ng/mL
concentration at 3 h ([1]; male, Sprague-Dawley, rat, plasma, healthy rats, supra-lingual formulation, 3 hours of application, mean ± SD): 2.76 ± 0.68 ng/mL
concentration at 4 h ([1]; male, Sprague-Dawley, rat, plasma, healthy rats, supra-lingual formulation, 4 hours of application, mean ± SD): 1.76 ± 0.53 ng/mL
plasma concentration of MPS right before the placement of the last (fifth) formulation, group value ([2]; group treated with OXP-MPS formulations, 2 hours × 5 days): 4.52 (+2.23) ng/ml
SMILES: COc1c(C)c2c(c(O)c1C/C=C(\C)CCC(=O)O)C(=O)OC2 [MPS, mycophenolate]
Plasma concentration of mycophenolate immediately before the fifth dose application ([2]; 4NQO induced rats, daily 2-hours supra-lingual formulation (9,040 ng MPS, 680 ng OXP), individual rats, steady-state trough): 8.24 ng/mL and 6.84 ng/mL and 3.83 ng/mL and 2.54 ng/mL and 4.82 ng/mL and 2.37 ng/mL and 5.18 ng/mL

SMILES: CC(=O)O[C@H]1C(=O)[C@@]2(C)[C@H]([C@H](OC(=O)c3ccccc3)[C@]3(O)C[C@H](OC(=O)[C@H](O)[C@@H](NC(=O)c4ccccc4)c4ccccc4)C(C)=C1C3(C)C)[C@]1(OC(C)=O)CO[C@@H]1C[C@@H]2O [paclitaxel]
IC50 ([3]; Keratinocyte): 0.00041 µM
